Here are results for one compound from patent US20080009500A1, “Alpha-helix mimetics and methods relating to the treatment of fibrotic disorders” (priority 2005, published 2008).

The test system of assay [1] is bleomycin induced fibrosis in C57/B16 mice. Put plainly: Murine model of bleomycin induced pulmonary fibrosis, lung sections stained for collagen (trichrome), body weight, survival. It is filed as in vivo. The protocol:
Murine models of bleomycin induced fibrosis have been developed in order to study fibrotic disease progression.
(§1) Using this murine model of pulmonary fibrosis in transgenic Bat-Gal mice, ICG-001 (5 mg/Kg/day, administered via minipump) blocked >95% of bleomycin-induced TCF/β-catenin transcription.
There is an absence of airway epithelium in lower left compared to upper left (see arrow heads) and extensive collagen deposition (lower left). On the sixth day, either saline (upper right) or ICG-001 (5 mgs/Kg/day) was administered for 10 days after which the mice were sacrificed and sectioned. Of interest is the upper right (saline treatment) showing lack of normal airway epithelialization, extensive collagen deposition and intra-airway hypercellularity (fibroblasts and inflammatory influx).
The procedures were performed using the animal model as described in Example 2 (FIG. 15), and the sectioned lungs were stained for collagen.

The next assay relates to collagen1A2. Put plainly: RT-PCR for collagen1A2 in bleomycin treated mice. It is filed as in vivo. Particulars: 5 mgs/Kg/day s.c. The source says: (§2) FIGS. 16 and 17 show RT-PCR data for S100A4 (FIG. 16) and collagen1A2 (FIG. 17), which are increased in the bleomycin treated mice (treated with saline control).
In a further assay the test system is S100A4. Put plainly: RT-PCR for S100A4 in bleomycin treated mice. It is filed as in vivo. Particulars: 5 mgs/Kg/day s.c.
Description: as §2

The subject of the next assay is IPF patient fibroblasts. Put plainly: Western blots for S100A4 and E-Cadherin on whole cell lysates of cultured IPF fibroblasts. In kind it is cell-based, human. The protocol:
Western blots for S100A4 (also know as FSP-1 or fibroblast specific protein-1) and E-Cadherin were performed on whole cell lysates (FIG. 20).
(In general: A western blot detects proteins with antibodies after separation by electrophoresis.)

A further assay relates to Aquaporin 5. In words: Aquaporin 5 immunostaining of lung tissue in the bleomycin animal model. It is filed as in vivo, mice. Particulars: bleomycin and ICG-001 vs bleomycin alone. The procedure: The aquaporins are water channels expressed in a variety of cell types. Aquaporin 5 is involved in the transportation of water across the apical surface of the alveolar epithelium and the epithelia of the submucosal glands in the upper airway and nasopharynx. (Krane, C. M., P.N.A.S. 98:14192-4, 2001; Yang, F. J. Biol. Chem. 278:32173-80, 2003). Because aquaporin 5 is a marker of Type 1 (differentiated) lung epithelium, its expression was assayed in lung tissue treated with bleomycin (FIG. 22A), bleomycin and ICG-001 (FIG. 22B), and saline (FIG. 22C), using the animal model as described in Example 2 (FIG. 15), and immunostaining with an antibody specific for Aquaporin 5.

In assay [2] the test system is TCF/β-catenin transcription. Put plainly: Bleomycin model in Bat-Gal transgenic mice, X-Gal staining of lung sections (TCF/catenin-driven beta-galactosidase read-out). It is filed as in vivo. The protocol: as §1
These mice have a Beta-Galactosidase transgene driven by a TCF/Catenin driven promoter (i.e. a read out for activated Wnt/catenin signaling). The mice were given intratracheal saline or bleomycin and either treated with ICG-001 (5 mgs/Kg/day subcutaneously) or saline as vehicle control. The mice were sacrificed and the lungs sectioned and stained with X-Gal (blue color) A) intratracheal bleo+saline. B) intracheal bleo+ICG-001 C) saline +saline.
The dose was selected because ICG-001 reduces TCF/β-Catenin driven β-Galactosidase expression >95% at 5 mgs/Kg/day.

Where [3] appears, read: C57/B16 mice, bleomycin 5 days, then 5 mgs/Kg/day for 10 days.
[4] abbreviates: bleomycin and ICG-001 treatment.
Where [5] appears, read: IPF patient fibroblasts, RPMI 1640+10% FBS, 2 days.

Consider `O=C1[C@H](Cc2ccc(O)cc2)N2C(=O)CCN(C(=O)NCc3ccccc3)[C@H]2CN1Cc1cccc2ccccc12` [ICG-001], for which the mortality entry in assay [1] (5 mg/Kg/day) is given as “reduced mortality”. The disease progression result in assay [1] (5 mg/Kg/day, judged by mortality, histopathology and endogenous gene expression) is given as “not only halted but reversed disease progression”. In assay [1] (setting [3]), the “airway appearance in trichrome-stained lung sections” value is reported as “essentially normal”, the body weight entry is “regained normal body weight” and the “collagen levels in lung sections” value was “normal collagen levels”. Besides, the survival entry in assay [1] (C57/B16 mice, bleomycin 5 days, then 5 mgs/Kg/day for 10 days, untreated controls did not survive) is listed as “survived”. For the same compound, in assay [1] (setting [4]), the “alveolar fibrosis (lungs stained for collagen)” value is recorded as “prevented alveolar fibrosis” and the “interstitial fibrosis (lungs stained for collagen)” value was “prevented interstitial fibrosis”. Besides, the fibrosis result in assay [1] (over the 25 days of treatment) is “reversed fibrosis”. The “collagen1A2 message (RT-PCR)” value with collagen1A2 is “reduced essentially to negative control”. In the assay on S100A4, the “S100A4 message (RT-PCR)” value is reported as “reduced essentially to negative control”. Also, the “S100A4 expression (whole cell lysates)” value with IPF patient fibroblasts (ATCC IPF cells, RPMI1640+10% FBS, 2 days) is recorded as “decreased S100A4 expression”. The “E-cadherin expression at the mRNA level” value with IPF patient fibroblasts (IPF patient fibroblasts) was “also true at the mRNA level”. Also, in the assay on IPF patient fibroblasts (setting [5]), the “E-cadherin expression (Western blot, whole cell lysates)” value is given as “increased E-cadherin expression” and the “S100A4 expression (Western blot, whole cell lysates)” value is “decreased S100A4 expression”. In addition, the “aquaporin 5 expression (immunostaining)” value in the assay on Aquaporin 5 is on record as “greatly increased”. For the same compound, the “reduction of TCF/β-Catenin driven β-Galactosidase expression” value in assay [2] (5 mgs/Kg/day) is listed as > 95%. For the same compound, the “bleomycin-induced TCF/β-catenin transcription blocked” value in assay [2] (transgenic Bat-Gal mice, 5 mg/Kg/day via minipump) is > 95%.
